Literature values in patent US20160045473A1, “Biological Basis Of Adult Wellness” (priority 2012, published 2016).

Settings: healthy volunteers, at least one study

absorption: well absorbed
SMILES: O=C(O)[C@@H]1CCCN1 [proline, L-proline]
